# In PMC4728427, “Mechanism of allosteric activation of TMEM16A/ANO1 channels by a commonly used chloride channel blocker” (British Journal of Pharmacology, 2016):
# Experiments:
# Mouse TMEM16A [1] = target: T1, Mouse TMEM16A (Mus musculus, UniProt Q8BHY3); assay: Stationary noise analysis of whole-cell TMEM16A currents; assay type: cell-based; conditions: +70 mV, 12.5 μM [Ca2+]i; for P o: control 0.78 ± 0.02
# T1 construct: expressed in transfected cells; host or cells: HEK-293T
# T1 sequence (Q8BHY3 1-960): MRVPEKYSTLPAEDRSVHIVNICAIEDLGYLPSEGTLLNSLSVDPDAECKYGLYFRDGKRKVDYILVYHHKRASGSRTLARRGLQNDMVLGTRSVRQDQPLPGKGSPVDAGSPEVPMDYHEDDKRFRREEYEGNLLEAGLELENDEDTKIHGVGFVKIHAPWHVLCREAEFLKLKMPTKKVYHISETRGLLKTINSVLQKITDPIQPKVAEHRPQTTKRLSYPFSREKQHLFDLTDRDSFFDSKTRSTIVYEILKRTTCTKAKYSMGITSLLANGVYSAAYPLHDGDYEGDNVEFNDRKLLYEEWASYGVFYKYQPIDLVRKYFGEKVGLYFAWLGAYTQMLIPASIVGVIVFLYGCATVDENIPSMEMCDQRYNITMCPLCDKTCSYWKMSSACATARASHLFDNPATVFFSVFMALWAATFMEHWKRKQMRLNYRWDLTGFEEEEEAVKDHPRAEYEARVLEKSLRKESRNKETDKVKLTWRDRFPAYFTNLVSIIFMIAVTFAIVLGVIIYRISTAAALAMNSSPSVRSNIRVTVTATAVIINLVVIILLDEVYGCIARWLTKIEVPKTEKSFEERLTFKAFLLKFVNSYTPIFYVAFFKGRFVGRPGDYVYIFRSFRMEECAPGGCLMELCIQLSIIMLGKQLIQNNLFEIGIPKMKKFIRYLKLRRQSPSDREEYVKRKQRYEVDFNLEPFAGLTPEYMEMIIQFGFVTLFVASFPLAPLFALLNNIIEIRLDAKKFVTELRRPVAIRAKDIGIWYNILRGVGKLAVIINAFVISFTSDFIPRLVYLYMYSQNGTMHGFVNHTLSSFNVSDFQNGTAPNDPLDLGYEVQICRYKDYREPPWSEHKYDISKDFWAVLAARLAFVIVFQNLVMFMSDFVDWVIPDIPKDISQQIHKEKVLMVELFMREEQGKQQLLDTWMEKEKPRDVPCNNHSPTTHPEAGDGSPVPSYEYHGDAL
# Procedure: (§1) For non‐stationary noise analysis (Heinemann and Conti, 1992; Tammaro and Ashcroft, 2007), 80–200 identical pulses to a test potential of −70 mV (filtered at 10 kHz and sampled at 50 kHz) were applied, and the mean response, I, was calculated. The variance, σ ^2, was computed from the average squared difference of consecutive traces. Background variance and current at 0 mV were subtracted, and the variance–mean plot was fit by (4) σ^2=iI−I^2/N,
# (§2) with the single channel current, i, and the number of channels, N, as free parameters.
# TMEM16A channels are almost instantaneously activated by changes in V m in the presence of high [Ca^2+]i (12.5 μM) (e.g. Adomaviciene et al., 2013). The lack of slow time‐dependent changes in current amplitude under these conditions makes non‐stationary noise analysis unfeasible. Thus, for experiments carried out in high [Ca^2+]i, stationary noise analysis was performed instead. In the absence or presence of a fixed [A9C]ext, 10 tracts (each 600 ms in duration) of stationary currents measured at +70 mV were low‐pass filtered at 10 kHz and sampled at 50 kHz. For each tract of current, the variance and mean were calculated. The variance–mean plots obtained in the absence and presence of various [A9C]ext were fitted simultaneously with Equation (4).
# Stationary noise analysis was used to determine if A9C block manifests as a change in i and/or P o of TMEM16A. Experiments were conducted in the presence of 12.5 μM [Ca^2+]i to enable examination of the effect of A9C block in the absence of A9C‐mediated activation. Mean current and variance were measured in tracts of stationary currents recorded in the absence or presence of different [A9C]ext.
# With this assumption in mind, the variance–mean plots were fitted with Equation (4) (Figure 4C). The fits yielded a single value of i of 0.27 ± 0.04 pA (n = 5). P o values arising from the fits were 0.78 ± 0.02 for control (n = 5), 0.30 ± 0.08 at 100 μM [A9C]ext (n = 5) and 0.04 ± 0.01 at 1000 μM [A9C]ext (n = 5) (Figure 4D).
# Mouse TMEM16A [2] = target: T1, Mouse TMEM16A; assay: Non-stationary noise analysis of whole-cell TMEM16A tail currents; assay type: cell-based; conditions: −70 mV tail pulse, 300 nM [Ca2+]i; for P o: control 0.09 ± 0.02; for single channel current i: control 0.22 ± 0.01
# Procedure: as §1, §2
# Non‐stationary noise analysis was performed in the presence of 300 nM [Ca^2+]i during a tail pulse to −70 mV (Figure 8). In the absence of A9C, the i of TMEM16A was 0.22 ± 0.01 pA (n = 9). In the presence of 100 and 1000 μM [A9C]ext, i was 0.22 ± 0.01 pA (n = 9) and 0.23 ± 0.02 pA (n = 9) respectively. […] In the absence of A9C, the P o of TMEM16A was 0.09 ± 0.02 (n = 9) while in the presence of 100 and 1000 μM [A9C]ext, the P o was 0.41 ± 0.06 (n = 9) and 0.62 ± 0.06 (n = 9) respectively. Thus, extracellular A9C increased TMEM16A channel P o at a fixed V m and [Ca^2+]i.
# human TMEM16A = target: human TMEM16A; design: method as in Bradley et al. (2014); conditions: +80 mV, ref Bradley et al. (2014); cited from earlier work
structure (smiles),measurement,setting,value
"O=C(O)c1c2ccccc2cc2ccccc12 [A9C, Anthracene‐9‐carboxylic acid]",P o,Mouse TMEM16A [1]; 100 μM [A9C]ext,0.30 ± 0.08
same,P o,Mouse TMEM16A [1]; 1000 μM [A9C]ext,0.04 ± 0.01
same,single channel current i,Mouse TMEM16A [1]; single value from simultaneous fit in absence and presence of [A9C]ext,0.27 ± 0.04 pA
same,P o,Mouse TMEM16A [2]; 100 μM [A9C]ext,0.41 ± 0.06
same,single channel current i,Mouse TMEM16A [2]; 100 μM [A9C]ext,0.22 ± 0.01 pA
same,P o,Mouse TMEM16A [2]; 1000 μM [A9C]ext,0.62 ± 0.06
same,single channel current i,Mouse TMEM16A [2]; 1000 μM [A9C]ext,0.23 ± 0.02 pA
same,Ki,human TMEM16A,~60 µM
